Assay results reported in US12568971B2, “Degradative method” (Catexel Technologies Limited, priority 2020, dated 2026).

Columns and labels:
[1] = cited from earlier work
[2] = Dynamic viscosity of alginate solution after treatment (alginate depolymerisation), Brookfield cone/plate viscometer; settings: 60 min at 50° C.
Method: The bottle was placed in a warm water bath (50° C.) for 60 minutes before being removed and cooled in an ice bath. Finally, the dynamic viscosity was determined using a Brookfield viscosity meter as outlined below. Note 1: A 2 mM solution of [[…])2 (see description of stock 12 above) was mixed with equivalent volume of the 2 mM ascorbic acid stock solution (stock solution 7). Upon contact with the ascorbic acid, the catalyst turned from orange/red to red/purple. Note 2: 0.5 mL of both Me3-TACN ligand (stock solution 10) and MnSO4·H2O (stock solution 8) were mixed, stirred and used as a source of catalyst to be placed in the alginate solution. The dynamic viscosity of the samples was measured using a Brookfield HBDV-II cone/plate viscosity meter equipped with a spindle CPE-40. The viscometer was linked to a water bath to maintain the temperature at 25° C. The apparatus was controlled via computer (external mode) using the Rheocalc software. Initially, the viscometer was zeroed without spindle. Then, the spindle CPE-40 was installed and the gap between the bottom of the cone and the top of the cup was set according to the recommendations given by Brookfield. 0.5 mL of the treated alginate solution was placed in the cup of the viscometer using a disposable plastic syringe before the apparatus was closed and the test program launched. […] Results.

[3] = at 20° C.; cited from earlier work

O=C(O)[C@@H]1O[C@@H](O)[C@@H](O)[C@@H](O)[C@@H]1O [α-L-guluronic acid]
pKa [1]: 3.65

O=S(=O)([O-])[O-].[Mn+2] [MnSO4, manganese sulfate]
Dynamic Viscosity ([2]; Entry 1: 10 μM MnSO4, 10 μM Me3TACN ligand, 20 mM H2O2, 4.7 mM NaHCO3, pH 10): 85.4 mPa · s | Dynamic Viscosity ([2]; Entry 2: 10 μM MnSO4, 20 μM Me3TACN ligand, 20 mM H2O2, 4.7 mM NaHCO3, pH 10): 76.1 mPa · s | Dynamic Viscosity ([2]; Entry 3: 10 μM MnSO4, 40 μM Me3TACN ligand, 20 mM H2O2, 4.7 mM NaHCO3, pH 10): 63.4 mPa · s

CC(=O)[O-].CN1CCN(C)CCN(CCN2CCN(C)CCN(C)CC2)CC1.[Cl-].[Cl-].[Mn+3].[Mn+4].[O-2].[O-2] [[Mn2(μ-O)2(μ-CH3COO)(Me4-DTNE)]^2+, [Mn2(μ-O)2(μ-CH3COO)(Me4DTNE)]Cl2]
Dynamic Viscosity ([2]; 2.5 μM, pH 7.5, 10 mM H2O2, no buffer): 82.3 mPa · s | Dynamic Viscosity ([2]; 2.5 μM, pH 8.0, 10 mM H2O2, no buffer): 82.9 mPa · s | Dynamic Viscosity ([2]; 2.5 μM, pH 8.5, 10 mM H2O2, no buffer): 80.7 mPa · s | Dynamic Viscosity ([2]; 5.0 μM, pH 7.5, 10 mM H2O2, no buffer): 49.4 mPa · s | Dynamic Viscosity ([2]; 5.0 μM, pH 8.0, 10 mM H2O2, no buffer): 53.7 mPa · s | Dynamic Viscosity ([2]; 5.0 μM, pH 8.5, 10 mM H2O2, no buffer): 51.5 mPa · s | Dynamic Viscosity ([2]; 5.0 μM, pH 9.0, 10 mM H2O2, no buffer): 62.9 mPa · s

[Mn^IVMn^IV(μ-O)3(Me3-TACN)2][PF6]2
water solubility [3]: 10.8 mg/mL

O=C(O)[C@H]1O[C@@H](O)[C@@H](O)[C@@H](O)[C@@H]1O [β-D-mannuronic acid]
pKa [1]: 3.38
